Measured values reported in ChEMBL document CHEMBL1127649, “Protein kinase C. Modeling of the binding site and prediction of binding constants” (J Med Chem, 1994).

Molecular target: Protein kinase C alpha type (Homo sapiens, UniProt P17252)
Assay: Binding affinity (Ki) towards Protein kinase C

| Structure (SMILES) | Ki [µM] |
| --- | --- |
| CCCCCCC(=O)O[C@@H]1CC(=O)O[C@H]1CO | 187 |
| CCCCCCCCCCC/C=C1/C(=O)O[C@@H](CO)[C@@]12CCC(=O)O2 | 13.6 |
| CCCCCCCCCCC[C@H]1C(=O)O[C@@]2(CO)COC(=O)[C@@H]12 | 22 |
| CCCCCCCCCCC[C@@H]1C(=O)O[C@H]2[C@@H]1C(=O)O[C@@H]2CO | 27.8 |
| CCCCCCCCCCCCC1C(=O)O[C@@H](CO)[C@@]12CCC(=O)O2 (stereo partly specified) | 75.3 |
| CO[C@@H](CC[C@H](C)[C@H]1O[C@@]23CC(OC(=O)C[C@H]([C@@H](C)O)OC(=O)C[C@](O)(O2)[C@H](C)CC3(C)C)[C@@H]1C)c1cccc(O)c1 | 0.02 |
| CC(=O)O[C@@H]1CC(=O)O[C@H]1CO | > 1700 |
| CCCCCCCCCCC[C@@H]1C(=O)O[C@]2(CO)COC(=O)[C@H]12 | 7.7 |

The remaining lines, values ahead:

| Ki [µM] | Structure (SMILES) |
| --- | --- |
| 5.3 | CCCCCCCCCCCCCC(=O)O[C@H]1CC(=O)O[C@@H]1CO |
| 1.3 | CCCCCCCCCCCCCC(=O)OC[C@H](CO)OC(C)=O |
| 31 | CCCCCCCCCCCCCC(=O)O[C@H]1CC(=O)O[C@H]1CO |
| 4.1 | CCCCCCCCCCC(=O)O[C@@H]1CC(=O)O[C@H]1CO |
| 7.6 | CCCCCCCCCCCC[C@@H]1C(=O)O[C@]2(CO)CC(=O)O[C@H]12 |
| 2.5 | CCCCCCCCCCCCCC(=O)C1CC(=O)O[C@H]1CO (stereo partly specified) |
| 8.7 | CCCCCCCCCCCCCCCCCCC(=O)O[C@@H]1CC(=O)O[C@H]1CO |
| 300 | CCCCCCCCCCCCCC(=O)O[C@@H]1CC(=O)O[C@@H]1CO |
